Experimental data from publication PMC12381781, “Structural and functional insights into the selective inhibition of mutant tau aggregation by purpurin and oleocanthal in frontotemporal dementia” (Protein Science : A Publication of the Protein Society, 2025).
“Also recorded” adds a separate entry of the source. Read-outs that look alike come from different tables or passages of the source.

Experiments:
[1] = molecular target: T1, R2R3 (V287I) tau peptide (Homo sapiens, UniProt P10636, V604I); assay: Atomic force microscopy of R2R3 (V287I) aggregates; assay type: biochemical; conditions: compound 10 μM, 48 h
T1 sequence (P10636 592-653 V604I): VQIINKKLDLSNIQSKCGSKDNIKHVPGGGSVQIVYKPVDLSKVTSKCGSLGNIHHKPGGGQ
Procedure: (§1) Aggregates collected after 48 h of aggregation were processed for AFM analysis as described previously (Annadurai, Malina, Malohlava, et al., [2022]).

[2] = molecular target: R2R3 (P301L) tau peptide (Homo sapiens, UniProt P10636, P618L); assay: SPR titration cycle kinetics, immobilized R2R3 (P301L) peptide; assay type: binding
Chain of R2R3 (P301L) tau peptide (P10636 592-653 P618L): as the sequence (P10636 592-653 V604I) above, with I13V, P27L counted along it
Procedure: (§2) SPR experiments were conducted using the Sierra® SPR‐24 Pro system (Bruker Daltonics, Bremen, Germany), featuring a gold‐coated microfluidic array (24 detection spots, 3 × 8 format). Data acquisition and kinetic analysis were performed using SPR Analyzer 4 software.
(§3) All experiments were conducted at 25°C using PBS (pH 7.4) supplemented with 0.05% Tween‐20 and 5% DMSO as the running buffer to ensure assay reproducibility. Assay components, including 96‐well microtiter plates (Part # 1862984; Burker) and Microplate and Reservoir Sealer (Part #1862985; Burker), were used for sample handling and were compatible with the Sierra SPR®‐24 Pro system (Bruker Daltonics, Billerica, MA, USA).
(§4) WT and mutant (P301L, V287I, and N279K) tau peptides were dissolved in 10 mM sodium acetate buffer (pH 5.0; Burker) and immobilized onto High‐Capacity Amine Sensor Surfaces (Part #1862614; Bruker) using the Amine Coupling Kit (Part #1862634; Bruker). The sensor surface was preconditioned with a Surface Elution Buffer (Part #1862656; Bruker Daltonics) and 0.1M HCl to remove contaminants and improve binding specificity.
(§5) The surface was activated using 400 mM 1‐ethyl‐3‐(3‐dimethylaminopropyl) carbodiimide (Burker) and 50 mM N‐hydroxysuccinimide (Burker), enabling covalent attachment of tau peptides. Unreacted binding sites were blocked with 1M ethanolamine‐HCl (pH 8.5; Burker) to minimize nonspecific interactions. For each experiment, specific sensor spots (A/B/C) on channels 1–8 were designated for tau‐analyte interactions, with corresponding reference spots on the same channel for baseline correction. DMSO calibration solutions (4.6%, 4.8%, 5%, 5.2%, and 5.4%) were prepared for double referencing to compensate for DMSO solvent effects.
(§6) PUR and OLC were prepared in PBS (pH 7.4) supplemented with 0.05% Tween‐20 and 5% DMSO. Compound interactions with tau peptides were pre‐screened using a concentration range of 1–100 μM, and subsequent binding kinetics were evaluated at optimized concentrations. For kinetic studies, PUR was tested at […], while OLC was tested at 25–100 μM using two‐fold serial dilutions. Each analyte was sequentially injected, and association and dissociation phases were monitored to determine kinetic parameters.
(§7) SPR binding kinetics were assessed using the titration cycle kinetics (TCK) assay, which included consecutive association phases followed by a single dissociation phase. Pre‐assay simulations using the Kinetic Simulator feature of SPR Analyzer 4 software were used to optimize analyte concentration ranges and association/dissociation times. A reference blank injection was included for double referencing, and a single dissociation curve was recorded for the highest analyte concentration.
(§8) Sensorgrams were analyzed using the Kinetic Titration model, which was integrated into the global kinetic fitting model of the SPR Analyzer 4 software. This approach allowed for baseline correction and improved the reliability of kinetic parameters, including the Kon, Koff, and KD.
(§9) TCK‐derived kinetic parameters were compared across multiple runs and confirmed using Multi Injection Cycle Kinetics to validate reproducibility and accuracy.

[3] = test system: preformed R2R3 (V287I) fibrils; assay: Elongation of preformed R2R3 (V287I) fibrils, ThT; assay type: biochemical; conditions: R2R3 V287I pre-aggregated 24 h, compound 10 μM
Procedure: Peptides were pre‐aggregated for 24 h with aggregation kinetics monitored by ThT fluorescence, after which 10 μM PUR or OLC was added, followed by an additional 24–30 h of incubation (Figure 4a). Aggregation kinetics was monitored by ThT fluorescence, and elongation was quantified as the AUC following compound addition, normalized to each replicate's maximum pre‐treatment fluorescence (Figure 4b). […] WT peptide fibril elongation was reduced to 15.5 ± 2.8% (PUR) and 45.2 ± 3.2% (OLC), and P301L peptide fibril elongation was limited to 31.8 ± 0.6% (PUR) and 85.6 ± 2.2% (OLC) (Figure 4b). Fluorescence microscopy imaging further confirmed the presence of reduced ThT‐positive aggregates following the addition of PUR and OLC (Figure S12). Similar inhibition trends, with PUR outperforming OLC, were also observed for V287I and N279K peptides (Figure S12).
Figure S13. […] (a) ThT fluorescence kinetics of pre-aggregated R2R3 (V287I and N279K ) tau peptides treated with PUR or OLC (10 µM). Peptides were first allowed to aggregate for 24 h, followed by compound addition and continued incubation for an additional 24-30 h. […] Curves are normalized to each replicate’s maximum pre-treatment ThT fluorescence. […] (b) Aggregation levels post-treatment, expressed as a percentage of control (untreated fibrils), calculated from the AUC after compound addition. […]

[4] = molecular target: T1, R2R3 (V287I) tau peptide; assay: SPR titration cycle kinetics, immobilized R2R3 (V287I) peptide; assay type: binding
Procedure: as §2, §3, §4, §5, §6, §7, §8, §9

[5] = test system: Tau RD P301S FRET Biosensor cells; assay: Biosensor cells treated with compound alone, no exogenous seeds; assay type: cell-based; conditions: 48 h
Procedure: Figure S17. […] Tau RD P301S FRET Biosensor cells were treated with PUR or OLC at the indicated concentrations for 48 h in the absence of any exogenous tau seeds or aggregation mixtures. Cells were then imaged under the same conditions described in Figure 5 to assess spontaneous FRET signal (CFP/YFP inclusions) as a readout of intracellular tau aggregation. […] Scale bar: 100 µm.

[6] = molecular target: R2R3 (N279K) tau peptide (Homo sapiens, UniProt P10636, N596K); assay: Atomic force microscopy of R2R3 (N279K) aggregates; assay type: biochemical; conditions: compound 10 μM, 48 h
Chain of R2R3 (N279K) tau peptide (P10636 592-653 N596K): as the sequence (P10636 592-653 V604I) above, with N5K, I13V counted along it
Procedure: as §1

[7] = molecular target: T2, R2R3 (WT) tau peptide (Homo sapiens, UniProt P10636); assay: Atomic force microscopy of R2R3 (WT) aggregates; assay type: biochemical; conditions: compound 10 μM, 48 h
T2 construct: Peptides spanning R2R3—including PHF6 and PHF6*; purchased ProteoGenix (Schiltigheim, France); host or cells: chemical synthesis (custom peptide)
T2 sequence (P10636 592-653 limits assumed): as the sequence (P10636 592-653 V604I) above, with I13V counted along it
Procedure: as §1

Question: What does the source list for C/C=C(/C=O)[C@@H](CC=O)CC(=O)OCCc1ccc(O)cc1 [OLC, oleocanthal]?
Answer: AFM morphology of aggregates [1]: no fibrillar or aggregated structures were detected; Kon ([2]; SPR, R2R3 P301L): 52.36 M⁻¹ s⁻¹; koff ([2]; SPR, R2R3 P301L): 8.26e-05 s⁻¹; Kd ([2]; SPR, R2R3 P301L peptide immobilized, 25°C, PBS pH 7.4, read-out: KD): 1.58 µM; elongation of preformed fibrils [3]: inhibit the elongation; Kon ([4]; SPR, R2R3 V287I): 42.24 M⁻¹ s⁻¹; koff ([4]; SPR, R2R3 V287I): 8.69e-05 s⁻¹; Kd ([4]; SPR, R2R3 V287I peptide immobilized, 25°C, PBS pH 7.4, read-out: KD): 2.06 µM; induction of endogenous tau aggregation (FRET-positive inclusions) by compound alone [5]: No FRET-positive aggregates were detected; also recorded: no FRET‐positive inclusions were detected; AFM morphology of aggregates [6]: no fibrillar or aggregated structures were detected; AFM morphology of aggregates [7]: shorter, fragmented fibrils

Question: How did the “AFM morphology of aggregates” value [1] turn out when O=C1c2ccccc2C(=O)c2c(O)c(O)cc(O)c21 [PUR, purpurin] was run?
Answer: no fibrillar or aggregated structures were detected

Question: And the Kd [2]?
Answer: 14.8 µM

Question: And the kon ([2]; SPR, R2R3 P301L)?
Answer: 26.4 M⁻¹ s⁻¹

Question: What about the koff ([2]; SPR, R2R3 P301L, read-out: Koff) of the same compound?
Answer: 0.00039 s⁻¹

Question: What about the “elongation of preformed fibrils” value [3] of the same compound?
Answer: inhibit the elongation

Question: And the Kd [4]?
Answer: 4.73 µM

Question: What about the kon ([4]; SPR, R2R3 V287I) of the same compound?
Answer: 42.1 M⁻¹ s⁻¹

Question: And the koff ([4]; SPR, R2R3 V287I, read-out: Koff)?
Answer: 0.000199 s⁻¹

Question: What about the “induction of endogenous tau aggregation (FRET-positive inclusions) by compound alone” value [5] of the same compound?
Answer: No FRET-positive aggregates were detected; also recorded: no FRET‐positive inclusions were detected

Question: What about the “AFM morphology of aggregates” value [6] of the same compound?
Answer: no fibrillar or aggregated structures were detected

Question: What about the “AFM morphology of aggregates” value [7] of the same compound?
Answer: shorter, fragmented fibrils
